{"source": "paper PMC13126685", "about": "“Targeting Highly Reactive Oxygen Species (hROS) for Prodrug Activation through a Cascade Reaction with Kinetic Tunability (CReKT) to Effect Linker Cleavage” (Journal of Medicinal Chemistry, 2026)", "key": {"[1]": {"assay": "Cyclization kinetics of model thioethers and sulfoxides by RP-HPLC", "format": "physicochemical", "conditions": "for half-life at 200 μM: PBS, pH 7.4, 200 μM in PBS/DMSO (98:2); for half-life at 200 μM / cyclization, result in words: 37 °C, pH 7.4; for cyclization, result in words: 200 μM in PBS/DMSO (98:2)", "experimental": "The basic premise of this ROS-sensitive prodrug strategy relies on two properties: (1) the substantial rate enhancement of the cyclization/condensation reaction after oxidation and (2) the ability for ROS to oxidize a thioether to sulfoxide rapidly, which we have recently extensively studied. To examine the first aspect, we studied the rate of cyclization of the thioethers (3a–3g) and sulfoxides (4a–4g) using RP-HPLC (Figure and Figures S1–S5). Briefly, 200 μM thioether or sulfoxide was incubated in PBS (containing 2% DMSO) at 37 °C. Aliquots of the reaction solution were sampled at designated time points for examination of the reaction kinetic profiles. As representative examples, the cases of thioether-sulfoxide pairs 3 a /4a (EWG: −CN), 3 e /4e (EWG: −CONH2), and 3 f /4f (EWG: −CONHC3H7) are described (Figure ). […] As a subsequent step, we were interested in the ability to tune the reaction kinetics and the magnitude of the reaction rate separation between the thioether and sulfoxide analogs. We are especially interested in searching for systems that offer a high degree of separation in reaction kinetics before and after thioether oxidation.\nFirst, 10 mM stock solutions of compound 3 or 4 were prepared in DMSO. […] The resultant solution was kept at 37 °C. […] Either gradient method A or B was used to monitor the reaction."}, "[2]": {"assay": "ROS-triggered drug release from drug conjugates after oxidation by NaOCl (RP-HPLC)", "conditions": "100 μM conjugate, 150 μM NaOCl, 37 °C, pH 7.4, 20 min", "quoted_text": "Specifically, to study drug release after oxidation by NaOCl, 100 μM of Flox-CReKT 12a was incubated with 150 μM sodium hypochlorite (NaOCl) in PBS (containing 1% DMF) under near-physiological conditions (Figure ). The reaction progress was monitored by RP-HPLC, where 20 μL of the incubated mixture was sampled and analyzed at designated time points (Figure ). Drug release t 1/2 was calculated by plotting the peak area of Flox released against time (Figure a). […] Specifically, oxidation of Flox-CReKT conjugate 12a is designed to lead to sulfoxide analogue 13a, which undergoes cyclization to release the Flox with the formation of the cyclized byproduct (6a) (Figure ).\nWe used the same protocol as discussed in the previous section of ROS-sensitive drug release to study the effect of pH. […] Furthermore, we used either a citrate- or PBS-based buffer to test the effect of pH on the oxidation step.\nTo monitor the drug release in the presence of ROS, drug conjugate 12 was incubated with ROS under near-physiological conditions. First, a 10 mM stock solution of the drug conjugate was prepared in DMF. Then, 10 μL was taken from the stock solution and added to 975 μL of the buffer. Then, 15 μL of 10 mM ROS solution was added to the solution. The resultant solution was kept at 37 °C. At different time points, 20 μL was taken from the reaction mixture and injected into HPLC."}, "RS4;11 cells": {"tested_on": "RS4;11 cells", "assay": "Cytotoxicity, CCK-8 assay", "format": "cell-based", "conditions": "Homo sapiens, RS4-11, 72 h", "experimental": "To conduct this set of experiments, a 96-well plate (8 × 12) was used. First, RS4;11 cells were seeded in a 96-well plate 1 day before the experiment (RPMI-1640, containing 10% FBS and 1% PNS). Then, the cells were incubated with different concentrations of compounds with or without the stimulant. Specifically, the final concentrations of compounds were 0.1 pM–100 μM with or without H2O2 (25 μM) stimulation. The plate containing cells were incubated for 72 h at 37 °C with 5% CO2. The cell viability was tested using the CCK-8 assay. Specifically, after 72 h of incubation, 10 μL of the CCK-8 assay reagent was added to each well. Then, the plate was further incubated for 2 h. After that, the plate was gently shaken for 1 min, and then absorbance was recorded at 450 nm. The percentage cell viability was calculated using the following formula: cell viability (%) = ((A 450 of treated wells – A 450 of control wells)/(A 450 of no treatment wells – A 450 of control wells)) × 100. The experiment was conducted in triplicates."}, "[3]": {"assay": "Drug release / stability of drug conjugates in buffer in the absence of ROS (RP-HPLC)", "format": "physicochemical", "conditions": "100 μM, 37 °C", "experimental": "Cellular compartments can have slightly different pH.\nTo monitor drug release in the absence of ROS, the same procedure of the model compound was followed with a small change of stock solution solvent. For drug conjugates 12, DMF was used to prepare the stock solution. Briefly, a 10 mM stock solution of the drug-conjugated compound was prepared in DMF. […] The resultant solution was kept at 37 °C."}, "[4]": {"set-up": "method as in number not shown in text", "conditions": "ref number not shown in text; cited from earlier work"}, "RAW264.7 cells": {"tested_on": "RAW264.7 cells", "assay": "Intracellular ROS detection using DCFH-DA fluorescent probe", "format": "cell-based", "conditions": "10 μM DCFH-DA, PMA 2 μM or LPS 2 μg/mL, 4 h, λex 495 nm, λem 530 nm", "text": "To correlate the intracellular drug release, we also studied intracellular ROS formation upon stimulation with LPS or PMA or using RAW264.7 cells. We chose one of the widely used fluorescent probes, DCFH-DA, which is the diester version of DCFH capable of cellular penetration. − Subsequent hydrolysis of the ester groups would lead to DCFH, which is not readily cell membrane permeable and thus is trapped intracellularly. […] Similar to the intracellular payload release studies, we used RAW264.7 cells for intracellular ROS determination work. Briefly, 10 μM of DCFH-DA was incubated with and without LPS/PMA. Specifically, three groups were tested with the first being 10 μM of DCFH-DA only, the second being 10 μM of DCFH-DA and 2 μg/mL of LPS, and the third being 10 μM of DCFH-DA and 2 μM of PMA. The cells were incubated for 4 h before fluorescence measurements using a plate reader (λex 495 nm and λem 530 nm). […] Working solutions were prepared by dilution in DMEM (Fluorobright DMEM, containing 1% PNS). DCFH-DA (10 μM) was prepared by adding 4 μL of 10 mM DCFH-DA in 3.996 mL of media. DCFH-DA (10 μM) and LPS (2 μg/mL) were prepared by adding 4 μL of 10 mM DCFH-DA and 4 μL of 2 μg/μL of LPS in 3.994 mL of media. […] Subsequently, the plate was incubated 4 h before fluorescence measurements using a plate reader (λex 495 nm and λem 530 nm). […]"}, "[5]": {"conditions": "read-out: t 1/2 (thioether) (3a–g), cyclization (converted)"}, "[6]": {"conditions": "read-out: t 1/2 (sulfoxide) (4a–g), cyclization (converted)"}}, "note": "Where two headings read alike, the source gives them in different places.", "data": [{"molecule": "COC(=O)c1ccccc1SCC#N", "note": "[3a, Methyl 2-((Cyanomethyl)thio)benzoate]", "values": [{"measurement": "half-life at 200 μM", "setting": "[1]; [5]", "result": 5, "unit": "h"}]}, {"molecule": "COC(=O)c1ccccc1SCC(F)(F)F", "note": "[3b, Methyl 2-((2,2,2-Trifluoroethyl)thio)benzoate]", "values": [{"measurement": "cyclization, result in words", "setting": "[1]", "result": "did not lead to cyclization"}, {"measurement": "half-life at 200 μM", "setting": "[1]; [5]", "result": "> 48", "unit": "h"}]}, {"molecule": "COC(=O)c1ccccc1SCC(=O)C(C)(C)C", "note": "[3c, Methyl 2-((3,3-Dimethyl-2-oxobutyl)thio)benzoate]", "values": [{"measurement": "half-life at 200 μM", "setting": "[1]; [5]", "result": 10, "unit": "h"}]}, {"molecule": "COC(=O)CSc1ccccc1C(=O)OC", "note": "[3d, Methyl 2-((2-Methoxy-2-oxoethyl)thio)benzoate]", "values": [{"measurement": "half-life at 200 μM", "setting": "[1]; [5]", "result": 6, "unit": "h"}]}, {"molecule": "COC(=O)c1ccccc1SCC(N)=O", "note": "[3e, Methyl 2-((2-Amino-2-oxoethyl)thio)benzoate]", "values": [{"measurement": "half-life at 200 μM", "setting": "[1]; [5]", "result": "> 48", "unit": "h"}]}, {"molecule": "CCCNC(=O)CSc1ccccc1C(=O)OC", "note": "[3f, Methyl 2-((2-Oxo-2-(propylamino)ethyl)thio)benzoate]", "values": [{"measurement": "cyclization, result in words", "setting": "[1]", "result": "no cyclization"}, {"measurement": "cyclization after 5 days, result in words", "setting": "[1]; near-physiological conditions, 5 days", "result": "no significant cyclization"}]}, {"molecule": "COC(=O)c1ccccc1SCC(=O)O", "note": "[3g, 2-((2-(Methoxycarbonyl)phenyl)thio)acetic Acid]", "values": [{"measurement": "cyclization, result in words", "setting": "[1]", "result": "cyclization did not happen"}, {"measurement": "half-life at 200 μM", "setting": "[1]; [5]", "result": "> 48", "unit": "h"}]}, {"molecule": "COC(=O)c1ccccc1[S+]([O-])CC#N", "note": "(stereo not drawn) [4a, Methyl 2-((Cyanomethyl)sulfinyl)benzoate]", "values": [{"measurement": "half-life at 200 μM", "setting": "[1]; [6]", "result": 0.667, "unit": "h"}]}, {"molecule": "COC(=O)c1ccccc1[S+]([O-])CC(F)(F)F", "note": "(stereo not drawn) [4b, Methyl 2-((2,2,2-Trifluoroethyl)sulfiny)benzoate]", "values": [{"measurement": "cyclization, result in words", "setting": "[1]", "result": "did not lead to cyclization"}, {"measurement": "half-life at 200 μM", "setting": "[1]; [6]", "result": "> 48", "unit": "h"}]}, {"molecule": "COC(=O)c1ccccc1[S+]([O-])CC(=O)C(C)(C)C", "note": "(stereo not drawn) [4c, Methyl 2-((3,3-Dimethyl-2-oxobutyl)sulfinyl)benzoate]", "values": [{"measurement": "half-life at 200 μM", "setting": "[1]; [6]", "result": 1.5, "unit": "h"}]}, {"molecule": "COC(=O)C[S+]([O-])c1ccccc1C(=O)OC", "note": "(stereo not drawn) [4d, Methyl 2-((2-Methoxy-2-oxoethyl)sulfinyl)benzoate]", "values": [{"measurement": "half-life at 200 μM", "setting": "[1]; [6]", "result": 0.667, "unit": "h"}]}, {"molecule": "COC(=O)c1ccccc1[S+]([O-])CC(N)=O", "note": "(stereo not drawn) [4e, Methyl 2-((2-Amino-2-oxoethyl)sulfinyl)benzoate]", "values": [{"measurement": "half-life at 200 μM", "setting": "[1]; [6]", "result": "~2.17", "unit": "h"}]}, {"molecule": "CCCNC(=O)C[S+]([O-])c1ccccc1C(=O)OC", "note": "(stereo not drawn) [4f, Methyl 2-((2-Oxo-2-(propylamino)ethyl)sulfinyl)benzoate]", "values": [{"measurement": "half-life at 200 μM", "setting": "[1]; [6]", "result": 7.5, "unit": "h"}]}, {"molecule": "COC(=O)c1ccccc1[S+]([O-])CC(=O)O", "note": "(stereo not drawn) [4g, 2-((2-(Methoxycarbonyl)phenyl)sulfinyl)acetic Acid]", "values": [{"measurement": "cyclization, result in words", "setting": "[1]", "result": "cyclization did not happen"}, {"measurement": "half-life at 200 μM", "setting": "[1]; [6]", "result": "> 48", "unit": "h"}]}, {"molecule": "N#CCSc1ccccc1C(=O)OC1CC(n2cc(F)c(=O)[nH]c2=O)OC1CO", "note": "[12a, (2S,3R,5S)-5-(5-Fluoro-2,4-dioxo-3,4-dihydropyrimidin-1(2H)-yl)-2-(hydroxymethyl)tetrahydrofuran-3-yl 2-((Cyanomethyl)thio)benzoate]", "values": [{"measurement": "Flox released at the 20 min time point", "setting": "[2]", "result": 90, "unit": "%"}]}, {"molecule": "CCCNC(=O)CSc1ccccc1C(=O)O[C@H]1C[C@H](n2cc(F)c(=O)[nH]c2=O)O[C@@H]1CO", "note": "[12f, (2R,3S,5R)-5-(5-Fluoro-2,4-dioxo-3,4-dihydropyrimidin-1(2H)-yl)-2-(hydroxymethyl)tetrahydrofuran-3-yl 2-((2-Oxo-2-(propylamino)ethyl)thio)benzoate]", "values": [{"measurement": "IC50", "setting": "RS4;11 cells; + 25 μM H2O2", "result": "202 ± 3", "unit": "nM"}, {"measurement": "IC50", "setting": "RS4;11 cells; without H2O2", "result": "197 ± 3", "unit": "nM"}, {"measurement": "stability in the absence of ROS for up to 72 h", "setting": "[3]; pH 7.4, 72 h", "result": "remained intact"}]}, {"molecule": "CCc1c2c(nc3ccc(OC(=O)c4ccccc4SCC(N)=O)cc13)-c1cc3c(c(=O)n1C2)COC(=O)[C@]3(O)CC", "note": "[14e, (S)-4,11-Diethyl-4-hydroxy-3,14-dioxo-3,4,12,14-tetrahydro-1H-pyrano[3′,4’:6,7]indolizino[1,2-b]quinolin-9-yl 2-((2-Amino-2-oxoethyl)thio)benzoate]", "values": [{"measurement": "SN-38 released within 24 h without oxidation", "setting": "[3]; pH 7.4, 24 h", "result": "about 25%"}]}, {"molecule": "O=C(O)c1ccccc1C1c2cc(Cl)c(O)cc2Oc2cc(O)c(Cl)cc21", "note": "[DCFH]", "values": [{"measurement": "second-order rate constant of reaction with hypochlorite", "setting": "[4]", "result": "580 ± 18", "unit": "M^–1 s^–1"}]}, {"molecule": "CCCCCCCCCCCCCC(=O)O[C@@H]1[C@@H](C)[C@@]2(O)[C@@H](C=C(CO)C[C@]3(O)C(=O)C(C)=C[C@@H]23)[C@@H]2C(C)(C)[C@]12OC(C)=O", "note": "[PMA, phorbol 12-myristate 13-acetate]", "values": [{"measurement": "fluorescence intensity of DCFH-DA probe upon stimulation (intracellular ROS)", "setting": "RAW264.7 cells", "result": "significantly higher fluorescence intensity"}]}, {"molecule": "lipopolysaccharides [LPS]", "values": [{"measurement": "fluorescence intensity of DCFH-DA probe upon stimulation (intracellular ROS)", "setting": "RAW264.7 cells", "result": "marginal increase"}]}]}
